Several values for one entry are separate records, joined by “and”; a condition that tells them apart may be missing. Identical values can stand only once.
Experiments:
hMOR [1] = target: T1, hMOR (Homo sapiens, UniProt P35372); assay: cell-based; settings: read-out: Emax hMOR
T1 construct: expressed in transfected cells; plasmid a gift from Dr. Nevin Lambert

hMOR [2] = target: T1, hMOR; assay: cell-based
mKOR = target: T2, mKOR (Mus musculus, UniProt P33534); assay: [125I]BNtxA radioligand competition binding, mouse KOR; settings: mean ± SEM, n = 3; [125I]BNtxA; read-out: Ki ± SEM mKOR
T2 construct: expressed in transfected cells; membranes

rKOR = target: T3, rKOR (Rattus norvegicus, UniProt P34975); assay: CAMYEL BRET cAMP agonist assay at rKOR; type: cell-based; settings: individual replicates, Supplementary Figure 8B source data
T3 construct: expressed in transfected cells

hKOR = hKOR (Homo sapiens, UniProt P41145); assay: CAMYEL BRET cAMP agonist assay at hKOR; type: cell-based; settings: individual replicates, Supplementary Figure 8A source data
CD1 mice = assay: Tail-flick antinociception in CD1 mice; type: in vivo, mouse; settings: for Tail flick (%MPE), average / Tail flick latency in secs, Av / Tail flick (%MPE) / Tail flick latency / Tail flick latency in secs, mean: sc; for Tail flick (%MPE), average / Tail flick latency in secs, Av: average of 11 animals; for Tail flick (%MPE) / Tail flick latency: individual animals; for Tail flick latency in secs, mean: mean of 8 animals
hMOR [3] = target: T1, hMOR; assay: CAMYEL BRET cAMP agonist assay at hMOR; type: cell-based; settings: for cAMP %: hMOR, single replicates, source data Fig 6c, listed as C11-F-7OH (22)

CC[C@@H]1CN2CC[C@@]3(O)C(=Nc4cc(F)cc(OC)c43)[C@@H]2C[C@@H]1/C(=C\OC)C(=O)OC [11-F-7OH (22), 11-Fluoro-7-hydroxymitragynine]
Emax (hMOR [1]): < 10% | IC50 (hMOR [2]): 590 nM | Ki (mKOR): 21 ± 3.2 nM | Agonist activity of 7OH analogs at rKOR (rKOR; Log [drug](M) -5): 22.082 and 29.1799 and 24.9804 and 9.107 and 13.0188 and 13.182 and 6.083 and 2.973 and 4.112 | Agonist activity of 7OH analogs at rKOR (rKOR; Log [drug](M) -6): 13.2987 and 25.9578 and 3.4416 and 5.534 and 11.6761 and -0.5648 and 7.283 and 13.1071 and 4.997 | Agonist activity of 7OH analogs at rKOR (rKOR; Log [drug](M) -7): 18.031 and 31.9599 and 33.0367 and -2.212 and 3.5973 and -1.385 and 1.635 and 2.31 and 9.2799 | Agonist activity of 7OH analogs at rKOR (rKOR; Log [drug](M) -8): 5.787 and -5.909 and 29.0355 and 11.9094 and 9.551 and -12.1962 and 10.3961 and -3.525 and 1.154 | Agonist activity of 7OH analogs at rKOR (rKOR; Log [drug](M) -9): 2.374 and 3.557 and 1.503 and 17.2927 and 4.288 and -5.051 and 9.998 and -1.969 and -2.384 | Agonist activity of 7OH analogs at rKOR (rKOR; Log [drug](M) -10): 1.539 and 1.5713 and -3.1102 and 5.6014 and 10.9469 and 10.7639 and 2.853 and 4.901 and 1.67 | Agonist activity of 7OH analogs at rKOR (rKOR; Log [drug](M) -11): -1.844 and 21.6085 and 6.867 and 10.1299 and 11.9047 and -4.025 and 6.309 and -3.657 and -2.652 | Agonist activity of 7OH analogs at rKOR (rKOR; Log [drug](M) -13): 18.2754 and 7.8104 and 16.2642 and 12.0322 and 1.984 and 9.1095 and -1.886 and 4.583 and -1.369 | Agonist activity of 7OH analogs at hKOR (hKOR; Log [drug](M) -5): 12.7288 and 7.6957 and 5.691 and 5.203 and 10.1397 and 6.346 and 11.5584 and 16.2136 and 8.114 | Agonist activity of 7OH analogs at hKOR (hKOR; Log [drug](M) -6): 4.1678 and -6.234 and -2.623 and -0.4626 and 5.449 and 14.973 and 13.878 and 7.062 and 8.9598 | Agonist activity of 7OH analogs at hKOR (hKOR; Log [drug](M) -7): 15.7968 and 0.7988 and 22.403 and -2.445 and 4.302 and 10.7854 and 12.9808 and 8.955 and 17.6223 | Agonist activity of 7OH analogs at hKOR (hKOR; Log [drug](M) -8): 4.851 and -3.884 and -5.474 and 6.013 and -0.3123 and 2.012 and 9.524 and 10.5291 and 12.8743 | Agonist activity of 7OH analogs at hKOR (hKOR; Log [drug](M) -9): -6.272 and 9.969 and -14.9547 and 3.87 and -4.029 and 4.071 and 2.29 and -8.644 and 9.488 | Agonist activity of 7OH analogs at hKOR (hKOR; Log [drug](M) -10): -8.62 and -13.3054 and -5.371 and -6.566 and 5.6803 and 0.6674 and -0.4006 and -4.716 and 0.9825 | Agonist activity of 7OH analogs at hKOR (hKOR; Log [drug](M) -11): -18.0186 and -16.1556 and -9.7654 and -4.481 and 6.079 and -3.726 and -2.3334 and -2.856 and -4.795 | Agonist activity of 7OH analogs at hKOR (hKOR; Log [drug](M) -13): 2.027 and -5.796 and 3.769 and 2.62 and 6.896 and -9.516 and -3.456 and 3.959 and -0.5033 | duration of residual analgesic effect (CD1 mice; 5 mg/kg s.c., CD1 mice): at least 120 min | time of peak analgesic effect post injection (CD1 mice; 5 mg/kg s.c., CD1 mice): 15 min | partial analgesic efficacy (CD1 mice; 5 mg/kg s.c., CD1 mice, tail-flick): < 40 % MPE | Tail flick (%MPE), average (CD1 mice; 5 mg/kg, 15 min): 38 %MPE | Tail flick latency in secs, Av (CD1 mice; 5 mg/kg, 15 min): 5.1 s | Tail flick (%MPE) (CD1 mice; 5 mg/kg, 15 min): 53 %MPE and 57 %MPE and 20 %MPE and 21 %MPE and 30 %MPE (2×) and 35 %MPE and 62 %MPE and 25 %MPE and 54 %MPE and 27 %MPE | Tail flick latency (CD1 mice; 5 mg/kg, 15 min): 6.3 secs and 6.7 secs and 3.5 secs and 4.2 secs (2×) and 4.9 secs (2×) and 4.3 secs and 7.0 secs and 4.0 secs and 6.6 secs | Tail flick (%MPE), average (CD1 mice; 5 mg/kg, 30 min): 32 %MPE | Tail flick latency in secs, Av (CD1 mice; 5 mg/kg, 30 min): 4.7 s | Tail flick (%MPE) (CD1 mice; 5 mg/kg, 30 min): 15 %MPE and 100 %MPE and 37 %MPE and 11 %MPE and 14 %MPE and 21 %MPE and 19 %MPE and 56 %MPE and 32 %MPE and 4 %MPE and 38 %MPE | Tail flick latency (CD1 mice; 5 mg/kg, 30 min): 3.4 secs (2×) and 10.0 secs and 4.9 secs and 3.8 secs and 3.6 secs (2×) and 6.4 secs and 4.6 secs and 2.9 secs and 5.1 secs | Tail flick (%MPE), average (CD1 mice; 5 mg/kg, 60 min): 13 %MPE | Tail flick latency in secs, Av (CD1 mice; 5 mg/kg, 60 min): 3.3 s | Tail flick (%MPE) (CD1 mice; 5 mg/kg, 60 min): 15 %MPE and 34 %MPE and 31 %MPE and -9 %MPE and -7.53 %MPE and 10 %MPE and 8 %MPE and 33 %MPE and 11 %MPE and 2.7 %MPE and 18 %MPE | Tail flick latency (CD1 mice; 5 mg/kg, 60 min): 3.4 secs and 4.9 secs and 4.4 secs and 1.9 secs and 2.2 secs and 2.7 secs and 2.8 secs (2×) and 4.6 secs and 2.9 secs and 3.5 secs | Tail flick (%MPE), average (CD1 mice; 5 mg/kg, 120 min): 15 %MPE | Tail flick latency in secs, Av (CD1 mice; 5 mg/kg, 120 min): 3.4 s | Tail flick (%MPE) (CD1 mice; 5 mg/kg, 120 min): 38 %MPE and 44 %MPE and 49 %MPE and -4 %MPE and -12 %MPE and 6 %MPE (2×) and 3.8 %MPE and -1.23 %MPE and 9 %MPE and 22 %MPE | Tail flick latency (CD1 mice; 5 mg/kg, 120 min): 5.2 secs and 5.7 secs and 5.9 secs and 2.3 secs (2×) and 1.8 secs (2×) and 2.4 secs and 2.5 secs and 3.3 secs and 3.8 secs | Tail flick (%MPE) (CD1 mice; Fig 9b, 5 mg/kg): 17.7 %MPE and 17.8 %MPE and 17.3 %MPE and 17.1 %MPE and 26.9 %MPE and 34.1 %MPE and 38.3 %MPE and 27.3 %MPE | Tail flick latency (CD1 mice; Fig 9b, 5 mg/kg): 3.5 s and 4.0 s and 3.3 s and 3.7 s and 4.3 s and 4.6 s and 5.0 s and 4.4 s | Tail flick latency in secs, mean (CD1 mice; Fig 9b, 5 mg/kg): 4.1 s | Tail flick (%MPE) (CD1 mice; Fig 9b, 10 mg/kg): 24.1 %MPE and 13.7 %MPE and 25.9 %MPE and 28.9 %MPE and 26.9 %MPE and 39.0 %MPE and 32.1 %MPE and 27.3 %MPE | Tail flick latency (CD1 mice; Fig 9b, 10 mg/kg): 4.0 secs (2×) and 3.7 secs and 4.6 secs and 4.3 secs and 5.0 secs and 4.5 secs and 4.4 secs | Tail flick latency in secs, mean (CD1 mice; Fig 9b, 10 mg/kg): 4.3 s | Tail flick (%MPE) (CD1 mice; Fig 9b, 25 mg/kg): 29.1 %MPE and 27.4 %MPE and 42.0 %MPE and 38.2 %MPE and 23.1 %MPE and 36.6 %MPE and 37.0 %MPE and 44.2 %MPE | Tail flick latency (CD1 mice; Fig 9b, 25 mg/kg): 4.4 secs and 4.7 secs and 5.3 secs (2×) and 4.0 secs and 4.8 secs and 4.9 secs and 5.7 secs | Tail flick latency in secs, mean (CD1 mice; Fig 9b, 25 mg/kg): 4.9 s | EC50 (hMOR [3]): 29.4 nM | Emax (hMOR [3]): 57% | cAMP % (hMOR [3]; Log[drug] (M) -5): 51.264% and 45.9513% and 58.1795% and 79.6476% and 68.1188% and 65.3013% and 52.2398% and 64.2986% and 49.6622% | cAMP % (hMOR [3]; Log[drug] (M) -6): 56.7369% and 57.602% and 54.9333% and 67.8605% and 67.5648% and 53.8544% and 46.4412% and 33.3921% and 44.9213% | cAMP % (hMOR [3]; Log[drug] (M) -7): 48.1791% and 37.8893% and 39.1827% and 53.5374% and 50.3292% and 51.3541% and 36.9409% and 28.5036% and 44.2511% | cAMP % (hMOR [3]; Log[drug] (M) -8): 15.2392% and 22.4344% and 23.7656% and 25.1778% and 17.6434% and 19.3494% and 5.0692% and 13.2412% and 14.3735%
